From patent publication EP4635958A1, “PYRIMIDINE-CONTAINING POLYCYCLIC DERIVATIVE INHIBITOR, AND PREPARATION METHOD THEREFOR AND USE THEREOF” (Shanghai Hansoh Biomedical Co., Ltd., priority 2022, dated 2024)

How the values were obtained:
[1] = tested on: GP2D; assay: Inhibition of proliferation of KRAS G12D mutant tumor cell line GP2D (CellTiter-Glo); conditions: Homo sapiens, GP2d, 72 h, read-out: GP2D IC50
[2] = target: KRAS WT (Homo sapiens, UniProt P01116); assay: KRAS WT biochemical assay (Table 1, no method of its own); assay type: binding; conditions: read-out: KRAS WT Biochemical IC50
Sequence of KRAS WT (P01116 1-188 isoform P01116-2): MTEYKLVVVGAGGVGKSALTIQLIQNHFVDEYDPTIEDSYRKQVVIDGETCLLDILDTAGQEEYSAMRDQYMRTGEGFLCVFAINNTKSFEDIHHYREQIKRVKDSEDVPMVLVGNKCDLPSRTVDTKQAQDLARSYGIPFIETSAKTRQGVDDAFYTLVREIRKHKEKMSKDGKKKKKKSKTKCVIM

[3] = target: T1, KRAS G12D-SOS1 (Homo sapiens, UniProt P01116, G12D); assay: Blocking of KRAS G12D-SOS1 protein binding (Cisbio KRAS-G12D/SOS1 Binding Assay Kit, time-resolved fluorescence); conditions: KRAS G12D-GTP and SOS1 protein, signal ratio 665nm/620nm; read-out: G12D SOS1 biochemical IC50
T1 construct: purchased Cisbio 63ADK000CB17PEG
T1 sequence (P01116 1-188 isoform P01116-2 G12D): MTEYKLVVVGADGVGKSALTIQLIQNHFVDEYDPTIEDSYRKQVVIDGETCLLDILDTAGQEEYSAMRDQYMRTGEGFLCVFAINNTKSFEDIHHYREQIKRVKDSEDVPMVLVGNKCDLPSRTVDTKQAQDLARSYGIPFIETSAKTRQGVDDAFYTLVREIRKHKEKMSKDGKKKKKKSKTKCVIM
Text: • 1. Experimental objective: […] Experimental reagents and instruments The centrifuge (5810R) was purchased from Eppendorf; the pipette was purchased from Eppendorf or Rainin; and the microplate reader was purchased from BioTek (United States) with a model of SynergyH1 multifunctional microplate reader. KRAS-G12D/SOS1 Binding Assay Kit was purchased from Cisbio, with a catalog number of 63ADK000CB17PEG; GTP was purchased from Sigma, with a catalog number of G8877; 384-well plate was purchased from Perkin Elmer, with a catalog number of 6007299. The Diluent buffer in the kit was used to dilute the compound into 10× compound solution of different concentrations, and 2 uL was added to each well of the 384-well plate. Tag2-KRAS G12D protein and GTP were formulated into a mixed solution of 5×KRAS G12D-GTP protein using Diluent buffer, and Tag1-SOS1 protein was formulated into a 5×SOS1 protein solution using Diluent buffer. Each solution was added to the 384-well plate separately at 4 uL per well, and incubated at room temperature for 15 min. A mixed solution of 2× anti-Tag1-Tb^3+ and anti-Tag2-XL665 formulated using detection buffer was added to the 384-well plate at 10 µL per well, and incubated at 4°C in the dark for 3 h.

[4] = tested on: AsPC-1; assay: Inhibition of proliferation of KRAS G12D mutant tumor cell line AsPC-1 (CellTiter-Glo); assay type: cell-based; conditions: Homo sapiens, ASPC1, about 72 h
Summary of the method: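 KRAS G12D-mutant AsPC-1 cells plated overnight at 37 °C/5% CO2, then exposed to serial compound dilutions (DMSO/medium, vehicle control) for about 72 h. Viability read by CellTiter-Glo luminescence; inhibition rate vs concentration fitted by nonlinear regression for IC50.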

[5] = Pharmacokinetic determination in mice (IV and PO, plasma, LCMS/MS); assay type: in vivo, Balb/c mice; conditions: male, Balb/c, mouse, in vivo, iv, 1 mg/kg
Summary of the method: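 Male Balb/c mice, fasted overnight (n=3 per route): PO 30 mg/kg in 10% Captisol/50 mM citrate pH 5.0, or IV 1 mg/kg in 5% DMSO/10% Solutol HS15/85% PBS. Orbital blood sampled predose to 24 h; EDTA plasma analysed by LC-MS/MS.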

Structure (SMILES)	IC50 [1]	IC50 [2]	IC50 [3]	IC50 [4]	AUC [5]	C0 [5]	clearance [5]	half-life [5]
C#Cc1c(F)ccc2cc(O)cc(-c3nc4c5c(nc(OCC6(CN7CCC(=NOC)CC7)CC6)nc5c3F)N3CC5CCC(N5)C3CO4)c12 [Example 21-1, 1-((1-((((5aS,6S,9R)-2-(8-ethynyl-7-fluoro-3-hydroxylnaphthalen-1-yl)-1-fluoro-5a,6,7,8,9,10-hexahydro-5H-4-oxa-3,10a,11,13,14-pentaaza-6,9-methylnaphtho[1,8-ab]hept-12-yl)oxy)methyl)cyclopropyl)methyl)piperidine-4-one-oxo-methyloxime]	0.75 nM	60 nM	1.9 nM	3.1 nM	253 ng·h/mL	939 ng/mL	14.1 mL/min/kg	9.1 h
C#Cc1c(F)ccc2cc(O)cc(-c3nc4c5c(nc(OCC6(CN7CCC(=CF)C7)CC6)nc5c3F)N3CC5CCC(N5)C3CO4)c12 (centres unmarked) [Example 15-1]	0.76 nM	26 nM	3 nM	–	–	–	–	–
C#Cc1c(F)ccc2cc(O)cc(-c3nc4c5c(nc(OCC6(CN7CC8CC(=C(F)F)CC8C7)CC6)nc5c3F)N3CC5CCC(N5)C3CO4)c12 (centres unmarked) [Example 17-1]	1.2 nM	58 nM	2.6 nM	–	–	–	–	–
C#Cc1c(F)ccc2cc(O)cc(-c3nc4c5c(nc(OCC6(CN7CCC(=C(F)F)C7)CC6)nc5c3F)N3CC5CCC(N5)C3CO4)c12 (centres unmarked) [Example 14-1]	1.5 nM	153 nM	4.3 nM	–	–	–	–	–
